{"source": "patent US8119589B2", "about": "“Modulation of CD4+ T cell responses by a tick saliva protein, Salp15 and polypeptides derived therefrom” (University of North Carolina at Charlotte, priority 2004, dated 2012)", "key": {"AP-1 DNA binding": {"system": "AP-1 DNA binding", "details": "Anguita et al., 2002; cited from earlier work"}, "B cells and macrophages": {"system": "B cells and macrophages", "experiment": "Receptor capping in B cells and macrophages (anti-IgM, anti-CD16/CD32 cross-linking)", "format": "cell-based, mouse", "details": "50 μg/mL Salp15; anti-IgM and Fc engagement", "description": "(§1) For receptor capping studies, mouse primary B and CD11^+ cells were purified by positive selection using biotin anti-mouse CD45R/B220 clone RA3-6B2 and biotin anti-mouse CD11b clone M1/70 (BD Biosciences Pharmingen) respectively, followed by incubation with magnetic microbeads. The cells were analyzed for receptor capping using 25 μg/mL anti-mouse IgM and 25 μg/mL anti-mouse CD16/CD32 respectively, cross-linked with 25 μg/mL of anti-rat IgG594 for 10 min in the presence or absence of 50 μg/mL of Salp15. CD4^+ and CD8^+ T cells were purified by negative selection and incubated with 10 μg/mL anti-CD3 and 1 μg/mL anti-CD28 cross-linked with 10 μg/mL of anti-hamster IgG488 for 10 min in the presence or absence of 50 μg/mL of Salp15."}, "CD8+ cells": {"system": "CD8+ cells", "experiment": "Salp15488 binding on cell surface by confocal microscopy", "parameters": "species or system mouse"}, "CD8+ T cells": {"system": "CD8+ T cells", "experiment": "Lipid raft reorganization (CTB594 staining) in anti-CD3/CD28 activated CD8+ T cells", "format": "cell-based, mouse", "details": "Salp15 pretreatment", "description": "For the visualization of lipid rafts, phospho-tyrosine, and cytoskeleton reorganization, CD4^+, CD8^+ or Jurkat cells were cytospun for 10 minutes at 1000 RPM onto positively charged microslides (Fisher Scientific, Hampton, N.H., U.S.A.). The cells were fixed with 3.7% paraformaldehyde (Sigma Chemical Co.) for 15 minutes and stained with CTB594 (Molecular Probes, Eugene, Oreg., U.S.A.), AlexaFluor488 labeled phalloidin (Molecular Probes) or (1:50) biotin-conjugated anti-p-Tyr (PY99) followed by Streptavidin-AlexaFluor594 (1:100, Molecular Probes). For p-LAT and p-PLCγ1 staining, fixed cells were treated with PBS containing 0.1% Triton-X 100 and 100 mM glycine for 15 min at room temperature and stained using rabbit p-LAT (Tyr^191) or rabbit anti-p-PLCγ1 (Tyr^783) probed with anti-rabbit IgG488 (Molecular Probes).\nas §1, with “CD4^+ and CD8^+ T cells were purified by negative selection and incubated with 10 μg/mL anti-CD3 and 1 μg/mL anti-CD28 cross-linked with 10 μg/mL of anti-hamster IgG488 for 10 min in the presence or absence of 50 μg/mL of Salp15.” left out"}, "sCD4 D1-D4": {"target": "T1, sCD4 D1-D4 (Homo sapiens, UniProt P01730)", "T1 construct": "a sCD4 preparation that contains all four extracellular domains (D1-D4)", "experiment": "Analytical gel filtration and native gel electrophoresis of Salp15-sCD4", "format": "binding", "details": "native PAGE and Western blot", "description": "Purified sCD4 (D1-D4, 10 μg) and Salp15 (20 μg) were eluted through two SUPERDEX-200™ HR 10/30 gel filtration columns (Amersham Pharmacia Biotech, Piscataway, N.J., U.S.A.) connected in tandem using PBS as equilibration and elution buffer at a flow rate of 0.3 mL/min using an FPLC system (Amersham Pharmacia Biotech) equipped with a liquid chromatography controller LCC-501 Plus and regulated using FPLC director V1.10. To get the elution profile of the Salp15-CD4 complex, Salp15 was incubated with sCD4 before passing it through the gel filtration column. Blue dextran was used to estimate the void volume of the columns, while BSA, ovalbumin and lysozyme were used as molecular weight standards with elution volumes of 14.78 mL, 26.45 mL, 28.45 mL and 39.28 mL, respectively.\nPurified sCD4 (D1-D4, 10 μg), Salp15 (10 μg) and sCD4 (10 μg)+Salp15 (10 μg) were diluted into 50% glycerol, 40 mM HEPES (pH 6.5) and 50 mM imidazole (pH 6.5). The native gel [5% Acrylamide:Bis (29:1), 40 mM HEPES (pH 6.5), 50 mM imidazole (pH 6.5) and 10% glycerol] electrophoresis was performed using a 40 mM HEPES (pH 6.5) running buffer and 50 mM imidazole (pH 6.5) at 8 mAmps for 1.5 hours at 4° C. The gel was stained with coomassie blue or transferred to IMMOBILON P® (Millipore) blotting paper for immunoblotting with anti-Poly His-HRP and anti-CD4."}, "CD4+ T cells [1]": {"system": "CD4+ T cells", "experiment": "Salp15488 binding on cell surface by confocal microscopy", "parameters": "species or system mouse", "description": "(§2) For colocalization experiments, Jurkat and CD4^+ T cells were cytospun as described herein. HeLa and HeLa-CD4 cells were grown on chamber slides. The cells were fixed and stained with anti-CD4 and Salp15 as follows. Purified Salp15 was labeled using Alexa-488 with the Protein Labeling Kit (Molecular Probes) according to the manufacturer's instructions. Fixed cells were blocked with 5% normal serum and anti-CD16/CD32 (1:100) in PBS, incubated with 1 μg of monoclonal biotinylated anti-CD4 (L3T4) (BD Biosciences Pharmingen) followed by streptavidin594 staining. The cells were then stained with 20 μg/mL of Salp15488. For competition assays, cells were first blocked with 5% normal serum, incubated with either polyclonal anti-CD4 antibody, MT310, OKT4, normal rabbit IgG, Salp15 (0.5 mg/mL) or lysozyme (0.5 mg/mL) followed by staining with Salp15488. All samples were mounted in a GVA Mount (Zymed, San Francisco, Calif., U.S.A.) and visualized with an Olympus Confocal microscope equipped with Fluoview 3.0 software."}, "CD4 on HeLa-CD4 cells": {"target": "T2, CD4 on HeLa-CD4 cells (Homo sapiens, UniProt P01730)", "T2 construct": "host or cells: HeLa", "experiment": "Competition of Salp15488 binding to HeLa-CD4 cells", "details": "Salp15 or lysozyme 0.5 mg/mL", "description": "as §2"}, "CD4+ T cells [2]": {"system": "CD4+ T cells", "experiment": "INFγ-mediated STAT1 phosphorylation in CD4+ T cells", "format": "cell-based, mouse", "details": "20 ng/mL INFγ; Salp15 50 μg/mL", "description": "For tyrosine phosphorylation western analysis, cells were lysed in 60 mM Tris (pH 7.4) containing 150 mM NaCl, 5 mM EDTA, 1 mM EGTA, 1 mM β-glycerol phosphate, 2.5 mM sodium pyrophosphate, 25 mM NaF, 2 mM sodium orthovanadate, 1% Triton-X 100, 0.25% sodium deoxycholate, 1 mM PMSF and protease inhibitors for 15 min on ice, sonicated 4×5 sec and incubated at 37° C. for 10 min. The lysate was cleared by centrifugation and boiled in SDS-sample buffer. The samples were subjected to SDS-PAGE, transferred to a nitrocellulose membrane and immunoblotted with anti-pTyr, anti-pPLCγ1 and anti-Vav1, anti-pSrc family (Tyr^416) to measure p-Lck^394 (Alonso et al., 2004), anti-Lck, anti-pZap70 (Tyr^319), anti-Zap70, p44/42 and p44/42 (phopho-Tyr^204/Thr^202). Vav1 was immunoprecipitated using anti-Vav1 and protein A-agarose beads overnight, subjected to SDS-PAGE followed by immunoblotting with anti-pTyr or anti-Vav1. To examine the effect of Salp15 on T cell stimulation with INFγ, CD4^+ T cells were preincubated with Salp15 at 50 μg/mL followed by activation with 20 ng/mL of mouse recombinant INFγ (R & D Systems, Minneapolis, Minn., U.S.A.) for 30 min at 37° C. The cells were lysed as above and subjected to SDS-PAGE and immunoblotting with anti-pSTAT1 and anti-STAT1."}}, "data": [{"substance": "Salp15: secreted salivary protein from Ixodes scapularis, SEQ ID NO: 2; recombinant His-tagged, produced in Drosophila S2 cells", "values": [{"measurement": "AP-1 DNA binding activation", "setting": "AP-1 DNA binding", "value": "does not affect"}, {"measurement": "Lipid raft reorganization (receptor capping)", "setting": "B cells and macrophages", "value": "did not affect"}, {"measurement": "Staining of CD8+ cells", "setting": "CD8+ cells", "value": "no staining"}, {"measurement": "Lipid raft reorganization", "setting": "CD8+ T cells", "value": "unaffected"}, {"measurement": "Migration with sCD4 (D1-D4) in native gel", "setting": "sCD4 D1-D4", "value": "co-migrated"}, {"measurement": "Binding to CD4+ T cells", "setting": "CD4+ T cells [1]", "value": "bind specifically"}, {"measurement": "Competition of Salp15488 binding to HeLa-CD4 cells by preincubation", "setting": "CD4 on HeLa-CD4 cells", "value": "competed"}, {"measurement": "INFγ-mediated phosphorylation of STAT1", "setting": "CD4+ T cells [2]", "value": "unaffected"}]}]}
